# According to patent US20220389389A1, “METHODS AND A KIT TO REPROGRAM SOMATIC CELLS” (Novoxyne LLC, priority 2019, published 2022):
# Legend:
# PIFs = conditions: in vitro culture; cited from earlier work
# [1] = cited from earlier work
# [2] = tested on: iPSC generation from fibroblasts; conditions: without c-Myc and Klf4; cited from earlier work
# bone marrow cells = test: MSAIC inhibition assay with GsMTX4 / matrix stiffness culture, PI gene messages by real time PCR; assay type: cell-based, mouse; conditions: 5 μM GsMTX4, 16 hours
# Procedure: (§1) C57BL/6 male mice (4-6 weeks old) were purchased from Jackson Laboratory. Bone marrow cells and spleen cells were obtained from 4-6-week-old male C57BL/6 mice. Cells in single cell suspension were red cell-depleted before use. Bone marrow stromal cells were cultured and passaged in T75 culture flask as it was described [Torino et al., Bio-protocol 4: e1031 (2014)]. The embryonic fibroblast was prepared from 13-day fetus of C57BL/6 as described previously [Qiu et al., Bio-protocol 6: e1859 (2016)]. Cells used for the reprogramming were those cultured for 2 to 4 passage periods.
# (§2) Cells were cultured in 6 well plates (10^7 cells/well) in triplicate per group. GsMTX4 dissolved in PBS was added to the concentration 5 μM in the experimental group. Sixteen hours later, cells were harvested by scraper for spleen cells and bone marrow cells, pelleted for total RNA-extraction with RNeasy (Qiagen) or Trizol (Invitrogen). For EF cells and BM stromal cells, cell culture medium was drained and directly resuspended to the cell lysis buffer in the culture wells. Extracted RNAs were subjected to cDNA synthesis (Applied Bioscience) and analyzed for the messages specific for mouse PI genes and control genes by real time PCR thereto cycler (Bio-Rad, CFX384). Primers used were: Oct4 (5′: […] (SEQ ID NO:5), 3′: […] (SEQ ID NO:6), Sox2 (5′: […] (SEQ ID NO:7), 3′: […] (SEQ ID NO:8), Nanog (5′: […] ([…]), 3′: […] (SEQ ID NO:10), CFBP/α (5′: […] (SEQ ID NO:11), 3′: […] (SEQ ID NO:12), c-Myc (5′: […] (SEQ ID NO:13), 3′: TTATGCACCAGAGTTTCG (SEQ ID NO:14), RUNX1 (5′: […] (SEQ ID NO:15), 3′: […] (SEQ ID NO:16), PU1 (5′: […] (SEQ ID NO:17), 3′: […] (SEQ ID NO:18), IRF8 (5′: […] (SEQ ID NO:19), 3′: […] (SEQ ID NO:20), FOXP1 (5′: […] (SEQ ID NO:21), 3′: […] (SEQ ID NO:22), KLF4 (5′: […] (SEQ ID NO:23), 3′: […] (SEQ ID NO:24), Actin (5′: […] (SEQ ID NO:25), 3′: […] (SEQ ID NO:26), GAPDH 5′: […] (SEQ ID NO:27), 3′: […] (SEQ ID NO:28). The value of each Cq (Ct) were applied to the formula by which the message level of each specific gene (shown by the index value) was estimated in comparison to that of Actin or GAPDH housekeeping genes.
# (§3) Tissue culture plates with defined elasticity surface (0.2, 4, 50 kpa) were purchased from Matrigen. To cast polyacrylamide gel in petri-dishes, 3.5 cm petri-dish was used. Each dish was loaded with 330 μL of polyacrylamide gel cocktail and promptly the size-matched drop lid (polypropylene) was placed on the top (FIG. 30). Three different elasticities of the polyacrylamide gel were prepared in the study. The ratio of [acrylamide (40%): bis-acrylamide (2%): water] was determined according from the published data [Tse and Engler, Curr. Protoc. Cell Biol. Chapt. 10 Unit 10.16 (2010)]. Those were (75:112.5:812.5) for 1.7 kpa, (100:150:750) for 3.2 kpa and (250:30:720) for 7.4 kpa. The slice of the 50 ml conical centrifuge tube caps were used for the drop caps (arrow-pointed in FIG. 30).
# In experiments, mouse bone marrow cells were in vitro 37° C. cultured 16 hours in the presence of 5 μM GsMTX4. Cells were then assayed for the PI genes' messages as listed in the left of the FIG. 1. […] The presence of GsMTX4 in the culture was expected to prevent cells from sensing the strong stretch stress by MSAICs. Strikingly, the cells cultured in the presence of GsMTX4 expressed greater than 100 times of Oct4 message compared with the control cells (FIG. 1). […] 10(1): e1004079 (2014); North et al., Stem Cells. 22:158 (2004)].
# The fresh bone marrow cells were cultured for 16 hours in 6 well plates with GsMTX4 (5 μM) in DMEM supplemented with 10% FBS. The messages specific for the genes listed in the left were real time PCR-characterized and presented as the relative index in comparison with the value of β-actin message. […]
# spleen cells = test: MSAIC inhibition assay with GsMTX4, PI gene messages by real time PCR; assay type: cell-based, mouse
# Procedure: as §1
# as §2, with “The value of each Cq (Ct) were applied to the formula by which the message level of each specific gene (shown by the index value) was estimated in comparison to that of Actin or GAPDH housekeeping genes.” left out
# Spleen cells were 37° C.-treated with MβCD before the in vitro culture with GsMTX4 as described in FIG. 1. ND: not detected.
# [3] = tested on: bone marrow stroma cell line; test: as above; assay type: cell-based, mouse; conditions: GsMTX4, O/N culture
# Procedure: as §1
# (§4) Cells were cultured in 6 well plates (10^7 cells/well) in triplicate per group. GsMTX4 dissolved in PBS was added to the concentration 5 μM in the experimental group. Sixteen hours later, cells were harvested by scraper for spleen cells and bone marrow cells, pelleted for total RNA-extraction with RNeasy (Qiagen) or Trizol (Invitrogen). For EF cells and BM stromal cells, cell culture medium was drained and directly resuspended to the cell lysis buffer in the culture wells. Extracted RNAs were subjected to cDNA synthesis (Applied Bioscience) and analyzed for the messages specific for mouse PI genes and control genes by real time PCR thereto cycler (Bio-Rad, CFX384). […]
# EF cells [4] = test: as above; assay type: cell-based, mouse
# Procedure: as §1, §4
# EF cells [5] = test: RT-PCR assay for the expression of PI genes in the reprogramming cultures of EF cells; assay type: cell-based, mouse
# Procedure: Cells were suspended in DMEM supplemented with 5 mM MβCD at the concentration of 2×10^6/ml in 15 ml centrifuge tube. Cell suspension was incubated for 30 min at 37° C. with every 5 min gentle agitations. Washed once with 37° C. warmed DMEM/F12 and resuspended in small volume complete medium (30 μl/2×10^6 cells) [DMEM/F12 (Corning), 20% knockout serum replacement (Gibco), 1% nonessential amino acids (Gibco), 5×10^−5M 2-Mercaptethanol]. To initiate reprogramming culture on hydrogel, petri dish was added with 2.5 ml complete medium, then 30 μl of cell suspension was loaded on the hydrogel. Multiple dishes were housed in a 15 cm diameter petri dish with a water filled un-lid 6 cm petri dish. Cells on the gel and on the dish-bottom surface were monitored daily and the remarkable phenotype cells were recorded with EVOS cell monitoring system (Thermofisher). Various phenotype cells were characterized by the assays for the markers specific for the cell lineages (e.g., Oil red 0 for the adipocytes and alizarin for calcium deposited cells) as commonly available methods.
# Cells derived from the MβCD-treated and hydrogel-exposed culture in petri dish were subjected to the extraction of total RNA by Trizol. cDNAs were prepared as described above and the regular PCR was performed (35 cycle) using PCR master mix (Biotool) and the primers listed above for the real time PCR assays. The PCR products were resolved using 1.5% agarose gel, Ethidium Bromide-stained and the results were acquired by Gel Documentation system (Bio-Rad).
# EF cells were MβCD-treated and cultured in the hydrogel-casted petri dishes for 7 days before RNA extraction. The stiffness of the hydrogel was listed on the top of each lane. Total RNAs from spheres and dish-adhered cells were analyzed for the expression of the PI genes by RT-PCR. PCR-amplified fragments were dissolved by 1.5% agarose gel and stained by Ethidium Bromide. […]
# EF cells were MβCD-treated and cultured in the petri dishes. […] The message for each PI gene was analyzed as described in FIG. 1 and shown in B.
# EF cells [6] = test: Reprogramming and differentiation culture of EF cells, microscopy and staining; assay type: cell-based, mouse
# Procedure: as §3
# Ninety minutes later drop lids were carefully removed and the gels in the dishes were washed 5 times with 3 ml of sterile water. Each aspiration of the water from the dish was gently performed with 1 ml micro pipettor. During the washing, casted acrylamide gel come off the bottom. […]
# Cells were suspended in DMEM supplemented with 5 mM MβCD at the concentration of 2×10^6/ml in 15 ml centrifuge tube. […] Cells on the gel and on the dish-bottom surface were monitored daily and the remarkable phenotype cells were recorded with EVOS cell monitoring system (Thermofisher). […]
# Human PBMC = test: Nuclear reprogramming of human peripheral blood mononuclear cells; assay type: cell-based; conditions: 5 mM MβCD twice 20 min, then soft polyacrylamide gel culture
# Excerpt: Human PBMC is an attractive source of somatic cells for reprogramming to stem cells by the available iPSC technology. The sampling of the peripheral blood is a common practice in the medicine and possible to obtain at the individual specific fashion. The purification of the PBMC is also a regular method by Ficol gradient centrifugation. […] 27, 10-(2018), U.S. Pat. No. 9,447,382B2]. To investigate if the methods of the current invention can apply to reprogram human PBMC into the stem cell-like cells, and also differentiate into the de novo phenotypes in vitro, experiments were conducted in which cell were treated with MβCD and then cultured on the soft polyacrylamide gel as described infula.
# Human peripheral blood was corrected into the heparinized tube from left forearm vein. The blood mononuclear cells were separated using the Ficoll-Hypaque technique (density, 1.077; Pharmacia Biotech, Uppsala, Sweden). Cells were twice repeatedly 37° C. incubated for 20 min with 5 mM MβCD in DMEM, pelleted by centrifugation at 900 g at room temperature. Washed once with 37° C. warmed DMEM/F12 and resuspended in small volume complete medium (30 μl/2×10^6 cells) [DMEM/F12 (Corning), 20% knockout serum replacement (Gibco), 1% nonessential amino acids (Gibco), 5×10^−5M 2-Mercaptethanol]. Cells in the culture petri-dishes were monitored daily by microscopy and novel phenotype cells were recorded. […]
compound,measurement,setting,value
C[S+](C)[O-] [DMSO],expression of PIFs,PIFs,repressed
Cc1c(C(=O)Nc2cccc(C(F)(F)F)c2)cc(-c2ccccc2)n1CCCN1CCOCC1 [HC 067047],solubility,[1],only soluble in DMSO or alcohols
CCCC(CCC)C(=O)O [Valproic acid],increase of reprogramming efficiency over the four transcription factor method,[2],100 fold
GsMTX4,C/EBPα expression,bone marrow cells,activated prominently
same,FOXP1 (non-PI gene) expression change,bone marrow cells,the expression change was small
same,IRF8 (non-PI gene) expression change,bone marrow cells,the expression change was small
same,RUNX1 expression,bone marrow cells,activated prominently
same,Sox2 expression,bone marrow cells,activated prominently
same,Oct4 message compared with the control cells,"bone marrow cells; 37° C., polystyrene surface",greater than 100 times
same,PI genes expression,"spleen cells; GsMTX4, 16 hours",consistently repressed
same,PI genes expression,"spleen cells; GsMTX4, day 3",activation of the PI genes was significantly observed
same,PI genes expression,[3],resembled to that of fresh bone marrow cells
same,PI genes expression,"EF cells [4]; GsMTX4, 16 hours",responded like that observed in the study of fresh spleen cells
same,PI genes expression,"EF cells [4]; GsMTX4, day 3",found activated
same,solubility,[1],water soluble
methyl-β-cyclodextrin [MβCD],PI genes expression in response to GsMTX4 after MβCD treatment,"spleen cells; 37° C. MβCD treatment, then GsMTX4 O/N culture",activation of PI genes
same,time to detection of un-spliced PI gene messages after cholesterol depletion,EF cells [5]; MβCD-treated EF cells attached to dish bottom,≤ 24 h
same,presence of spliced PI gene messages,"EF cells [5]; MβCD-treated EF cells attached to dish bottom, day 1, 4, 7",present only in the cells cultured 7 days
same,"messages for Oct4, Nanog, and Sox2 at predicted sizes in bottom-adhered cells","EF cells [5]; MβCD-treated, hydrogel-casted petri dishes, 7 days",significant messages
same,efficiency of generating stem cell-like / differentiated cells,EF cells [6]; EF cells,greater efficiency than that of the hydrogel only
same,sphere formation on hydrogel,"EF cells [6]; MβCD, then low pascal hydrogels (1.7, 3.2, 7.4 kpa), O/N culture",formation of various size spheres were observed
same,appearance of novel-phenotype cells,Human PBMC,observed novel-phenotype cells
